Cell toxicity data for 4 compounds are collected here from patent US20130171189A1, “INDUCIBLE AND REPRESSIBLE VACCINIA VIRUSES WITH IMPROVED SAFETY” (priority 2011, published 2013).

Read-outs that look alike come from different tables or passages of the source.

The data set has as its system BS-C-1 cells. It counts as cell-based. Particulars: vRG0-infected cells. The protocol:
EGFP Expression Levels by vRG0 Were not Repressed Even in the Presence of High Concentrations of TCs: To test whether vRG0 was repressible by TCs, BS-C-1 cells were infected with vRG0 in the presence of increasing concentrations of ATC, TET, or DOX. The cytopathic effect observed by brightfield microscopy 2 days post-infection was indistinguishable from the cytopathic effect observed from cells treated with ATC and 10 μg/ml or less of TET or DOX (data not shown).
Since TCs complexed to MgCl2 bind to the TetR repressor with higher affinity than TCs alone (a commonly used strategy when studying induced conformation of the repressor by x-ray crystallography), ATC was incubated with MgCl2 to allow for complex formation.

[1] abbreviates: 100 μg/ml, 2 days post-infection.

As for `C[C@H]1c2cccc(O)c2C(=O)C2=C(O)[C@]3(O)C(=O)C(C(N)=O)=C(O)[C@@H](N(C)C)[C@@H]3[C@@H](O)[C@@H]21` [DOX, doxycycline], under setting [1], the Cell toxicity result was “morphology associated with cell toxicity”.
As for `CN(C)[C@@H]1C(O)=C(C(N)=O)C(=O)[C@@]2(O)C(O)=C3C(=O)c4c(O)cccc4[C@@](C)(O)[C@H]3C[C@@H]12` [TET, tetracycline], the Cell toxicity result under setting [1] is “morphology associated with cell toxicity”.
Regarding `Cc1c2c(c(O)c3c(O)cccc13)C(=O)[C@]1(O)C(=O)C(C(N)=O)=C(O)[C@@H](N(C)C)[C@@H]1C2` [ATC, anhydrotetracycline], the Cell toxicity entry (lower concentrations than TET and DOX) is “did not incur any toxicity”.
On to `[Cl-].[Cl-].[Mg+2]` [MgCl2], for which, for the setting “100 mM MgCl2 (ATC-MgCl2), 2 days”, the Cell toxicity result is “toxicity-associated morphology”.
